Activity data for one molecule are collected here from ChEMBL document CHEMBL5385846, “Discovery and development of palmatine analogues as anti-NASH agents by activating farnesoid X receptor (FXR)” (Eur J Med Chem, 2023).

Format in all cases: functional, organism-based
In assay [1] the test system is Mus musculus. The experiment in a line: Hepatoprotective activity in CDAHFD induced C57BL/6N mouse liver injury model assessed as effect on HDL level at 15 mg/kg,po qd administration for 4 weeks.
For assay [2], the system named is Mus musculus. The experiment in a line: Hepatoprotective activity in CDAHFD induced C57BL/6N mouse liver injury model assessed as decrease in total cholesterol at 15 mg/kg,po qd administration for 4 weeks.
The test system of assay [3] is Mus musculus. In words: Hepatoprotective activity in CDAHFD induced C57BL/6N mouse liver injury model assessed as effect on total bilirubin level at 15 mg/kg,po qd administration for 4 weeks.
Assay [4] relates to Mus musculus. The experiment in a line: Hepatoprotective activity in CDAHFD induced C57BL/6N mouse liver injury model assessed as effect on LDL level at 15 mg/kg,po qd administration for 4 weeks.
Assay [5] has as its system Mus musculus. The experiment in a line: Hepatoprotective activity in CDAHFD induced C57BL/6N mouse liver injury model assessed as effect on AST level at 15 mg/kg,po qd administration for 4 weeks.
In assay [6] the test system is Mus musculus. In words: Hepatoprotective activity in CDAHFD induced C57BL/6N mouse liver injury model assessed as effect on LDH level at 15 mg/kg,po qd administration for 4 weeks.
For assay [7], the system named is Mus musculus. In words: Hepatoprotective activity in CDAHFD induced C57BL/6N mouse liver injury model assessed as effect on glucose level at 15 mg/kg,po qd administration for 4 weeks.
Assay [8] deals with Mus musculus. The experiment in a line: Hepatoprotective activity in CDAHFD induced C57BL/6N mouse liver injury model assessed as effect on ALP level at 15 mg/kg,po qd administration for 4 weeks.
Assay [9] has as its system Mus musculus. In words: Hepatoprotective activity in CDAHFD induced C57BL/6N mouse liver injury model assessed as decrease in triglyceride level at 15 mg/kg,po qd administration for 4 weeks.
Assay [10] deals with Mus musculus. In words: Hepatoprotective activity in CDAHFD induced C57BL/6N mouse liver injury model assessed as effect on ALT level at 15 mg/kg,po qd administration for 4 weeks.

Active and inactive are the calls of the source. The calls are words filed in the database; no cut-off is given here.

With `CC[C@H]1[C@@H](O)[C@@H]2[C@H](CC[C@]3(C)[C@@H]([C@H](C)CCC(=O)O)CC[C@@H]23)[C@@]2(C)CC[C@@H](O)C[C@@H]12`, the outcome in the assay on Mus musculus [1], in the assay with Mus musculus [3], with Mus musculus [4], in the assay with Mus musculus [5], in the assay on Mus musculus [6] and with Mus musculus [8] was inactive. For the same molecule, the outcome in the assay on Mus musculus [10] was inactive. Moreover, the result in the assay on Mus musculus [2], with Mus musculus [7] and in the assay on Mus musculus [9] was Active.
